Assay results from US12258327B2, “5-membered heteroaryl-containing aminopyridine compounds as EGFR inhibitors” (YUHAN CORPORATION, priority 2021, dated 2025).
Read-outs that look alike come from different tables or passages of the source.

Key:
EGFR del19/T790M/C797S = EGFR del19/T790M/C797S (Homo sapiens, UniProt P00533, C797S/DEL746-750/T790M); experiment: Biochemical EGFR kinase assay (Lance Ultra TR-FRET), triple mutant del19/T790M/C797S
Method in brief: (§1)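 Step 1: compound in kinase buffer, 0.003–10 μM. Step 2: kinase reaction 1 h at room temperature. Step 4: TR-FRET read at 615/665 nm; IC50 calculated.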

EGFR L858R/T790M/C797S = EGFR L858R/T790M/C797S (Homo sapiens, UniProt P00533, C797S/L858R/T790M); experiment: Biochemical EGFR kinase assay (Lance Ultra TR-FRET), triple mutant L858R/T790M/C797S
Sequence of EGFR L858R/T790M/C797S (P00533 25-1210 T790M/C797S/L858R): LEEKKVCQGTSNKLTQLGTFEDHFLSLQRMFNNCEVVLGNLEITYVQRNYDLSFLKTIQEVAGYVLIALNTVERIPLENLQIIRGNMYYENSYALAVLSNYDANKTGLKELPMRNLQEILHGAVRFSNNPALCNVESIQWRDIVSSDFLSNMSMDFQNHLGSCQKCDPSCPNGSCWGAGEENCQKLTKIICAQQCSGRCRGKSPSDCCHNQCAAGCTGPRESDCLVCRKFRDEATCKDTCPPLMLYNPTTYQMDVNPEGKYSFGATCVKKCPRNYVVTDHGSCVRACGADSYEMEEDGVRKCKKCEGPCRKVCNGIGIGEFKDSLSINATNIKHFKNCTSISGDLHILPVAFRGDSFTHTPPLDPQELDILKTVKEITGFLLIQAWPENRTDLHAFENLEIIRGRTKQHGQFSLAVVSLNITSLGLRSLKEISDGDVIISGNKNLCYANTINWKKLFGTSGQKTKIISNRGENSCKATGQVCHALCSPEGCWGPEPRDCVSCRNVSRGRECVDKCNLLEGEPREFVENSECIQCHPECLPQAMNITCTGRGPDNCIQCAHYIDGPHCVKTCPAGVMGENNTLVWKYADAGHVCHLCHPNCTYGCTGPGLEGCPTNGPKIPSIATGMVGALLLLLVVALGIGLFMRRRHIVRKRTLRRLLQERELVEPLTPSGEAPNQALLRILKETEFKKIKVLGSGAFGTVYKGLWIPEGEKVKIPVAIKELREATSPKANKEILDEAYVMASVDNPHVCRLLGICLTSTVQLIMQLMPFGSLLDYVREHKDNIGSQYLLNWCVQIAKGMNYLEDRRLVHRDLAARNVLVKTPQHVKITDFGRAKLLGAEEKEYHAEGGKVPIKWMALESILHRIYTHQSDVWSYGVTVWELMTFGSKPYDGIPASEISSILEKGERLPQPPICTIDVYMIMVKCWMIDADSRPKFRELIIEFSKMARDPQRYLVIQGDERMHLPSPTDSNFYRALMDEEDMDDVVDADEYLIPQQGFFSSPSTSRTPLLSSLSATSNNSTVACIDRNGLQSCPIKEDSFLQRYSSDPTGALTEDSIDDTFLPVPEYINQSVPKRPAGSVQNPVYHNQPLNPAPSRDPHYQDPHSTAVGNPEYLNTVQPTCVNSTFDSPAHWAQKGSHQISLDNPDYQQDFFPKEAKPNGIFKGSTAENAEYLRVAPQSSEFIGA
Method in brief: as §1

EGFR L858R/C797S = EGFR L858R/C797S (Homo sapiens, UniProt P00533, C797S/L858R); experiment: Biochemical EGFR kinase assay (Lance Ultra TR-FRET), double mutant L858R/C797S
Sequence of EGFR L858R/C797S (P00533 25-1210 C797S/L858R): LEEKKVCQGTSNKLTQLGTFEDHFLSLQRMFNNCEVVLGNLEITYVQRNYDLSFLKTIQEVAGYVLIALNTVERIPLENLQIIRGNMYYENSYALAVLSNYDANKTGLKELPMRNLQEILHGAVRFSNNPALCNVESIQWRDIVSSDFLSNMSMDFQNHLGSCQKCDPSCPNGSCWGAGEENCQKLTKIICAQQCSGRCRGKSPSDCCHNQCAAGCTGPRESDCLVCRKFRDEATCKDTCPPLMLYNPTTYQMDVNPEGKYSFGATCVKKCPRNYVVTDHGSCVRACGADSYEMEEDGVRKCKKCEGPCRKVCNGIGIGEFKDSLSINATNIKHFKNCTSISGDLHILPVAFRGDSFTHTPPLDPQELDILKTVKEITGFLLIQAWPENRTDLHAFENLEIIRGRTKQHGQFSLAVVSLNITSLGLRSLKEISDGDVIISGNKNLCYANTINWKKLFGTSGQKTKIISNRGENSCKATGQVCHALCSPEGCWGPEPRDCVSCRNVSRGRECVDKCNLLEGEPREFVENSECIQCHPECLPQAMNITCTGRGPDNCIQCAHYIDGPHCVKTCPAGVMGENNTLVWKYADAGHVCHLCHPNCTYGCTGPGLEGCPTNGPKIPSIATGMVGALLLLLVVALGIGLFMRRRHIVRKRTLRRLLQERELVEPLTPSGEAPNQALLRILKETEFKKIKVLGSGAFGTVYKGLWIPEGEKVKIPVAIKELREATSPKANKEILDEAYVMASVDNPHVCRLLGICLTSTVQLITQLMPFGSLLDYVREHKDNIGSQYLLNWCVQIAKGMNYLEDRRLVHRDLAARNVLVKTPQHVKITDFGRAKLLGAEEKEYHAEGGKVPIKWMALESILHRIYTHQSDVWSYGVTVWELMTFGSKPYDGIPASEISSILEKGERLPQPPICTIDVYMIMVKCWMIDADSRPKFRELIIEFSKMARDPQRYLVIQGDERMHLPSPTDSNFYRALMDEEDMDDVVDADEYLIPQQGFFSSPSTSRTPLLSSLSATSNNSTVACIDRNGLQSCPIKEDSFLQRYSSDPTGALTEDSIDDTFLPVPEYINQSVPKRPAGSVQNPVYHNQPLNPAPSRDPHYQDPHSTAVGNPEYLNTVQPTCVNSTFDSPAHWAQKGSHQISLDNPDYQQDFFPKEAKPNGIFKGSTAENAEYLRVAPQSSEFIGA
Method in brief: as §1

EGFR wildtype (WT) = EGFR wildtype (WT) (Homo sapiens, UniProt P00533); experiment: Biochemical EGFR kinase assay (Lance Ultra TR-FRET), wildtype
Sequence of EGFR wildtype (WT) (P00533 25-1210): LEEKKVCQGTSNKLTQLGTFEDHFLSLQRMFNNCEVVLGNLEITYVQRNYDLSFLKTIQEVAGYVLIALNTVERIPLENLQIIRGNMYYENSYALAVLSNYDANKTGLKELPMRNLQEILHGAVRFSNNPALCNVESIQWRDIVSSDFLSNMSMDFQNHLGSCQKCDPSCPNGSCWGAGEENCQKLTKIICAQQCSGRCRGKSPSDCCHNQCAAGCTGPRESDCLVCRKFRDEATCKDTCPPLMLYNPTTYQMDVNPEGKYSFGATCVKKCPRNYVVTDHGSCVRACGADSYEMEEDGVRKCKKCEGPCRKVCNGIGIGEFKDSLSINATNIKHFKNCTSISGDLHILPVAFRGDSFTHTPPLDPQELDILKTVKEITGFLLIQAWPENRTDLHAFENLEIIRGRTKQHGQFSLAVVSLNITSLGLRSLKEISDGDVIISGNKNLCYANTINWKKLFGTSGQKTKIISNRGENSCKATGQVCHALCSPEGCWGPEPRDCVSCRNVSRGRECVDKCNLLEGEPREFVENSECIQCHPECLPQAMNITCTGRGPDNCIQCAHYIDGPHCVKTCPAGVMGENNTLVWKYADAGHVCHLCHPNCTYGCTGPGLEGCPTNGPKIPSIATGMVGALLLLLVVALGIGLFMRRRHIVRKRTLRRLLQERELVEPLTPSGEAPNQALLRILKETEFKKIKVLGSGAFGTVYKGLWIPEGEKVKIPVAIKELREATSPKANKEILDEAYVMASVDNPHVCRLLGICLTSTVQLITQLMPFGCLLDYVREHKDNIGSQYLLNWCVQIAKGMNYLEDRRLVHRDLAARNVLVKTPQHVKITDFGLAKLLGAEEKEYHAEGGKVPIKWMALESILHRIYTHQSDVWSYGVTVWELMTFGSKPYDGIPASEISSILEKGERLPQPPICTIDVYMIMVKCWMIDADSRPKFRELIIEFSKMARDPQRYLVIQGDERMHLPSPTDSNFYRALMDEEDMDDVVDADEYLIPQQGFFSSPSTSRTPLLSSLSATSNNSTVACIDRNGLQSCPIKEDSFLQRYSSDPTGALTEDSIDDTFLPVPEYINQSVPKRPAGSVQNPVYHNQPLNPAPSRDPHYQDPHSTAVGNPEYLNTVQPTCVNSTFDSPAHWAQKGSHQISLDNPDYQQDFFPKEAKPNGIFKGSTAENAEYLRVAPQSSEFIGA
Method in brief: as §1

EGFR del19/C797S = EGFR del19/C797S (Homo sapiens, UniProt P00533, C797S/DEL746-750); experiment: Biochemical EGFR kinase assay (Lance Ultra TR-FRET), double mutant del19/C797S
Method in brief: as §1

[1] = IC50 del19/T790M/C797S (nM) 100 μM ATP, 100 μM ATP
[2] = Km ATP, read-out: IC50 del19/T790M/C797S (nM) Km ATP
[3] = IC50 L858R/T790M/C797S (nM) 100 μM ATP, 100 μM ATP
[4] = Km ATP, read-out: IC50 L858R/T790M/C797S (nM) Km ATP
[5] = IC50 L858R/C797S (nM) 100 μM ATP, 100 μM ATP
[6] = Km ATP, read-out: IC50 L858R/C797S (nM) Km ATP
[7] = IC50 WT (nM) 100 μM ATP, 100 μM ATP
[8] = IC50 del19/C797S (nM) 100 μM ATP, 100 μM ATP
[9] = Km ATP, read-out: IC50 del19/C797S (nM) Km ATP
[10] = Km ATP, read-out: IC50 WT (nM) Km ATP
[11] = Km ATP, read-out: IC50 del19/T790M/C797S, Km ATP
[12] = Km ATP, read-out: IC50 L858R/T790M/C797S, Km ATP
[13] = Km ATP, read-out: IC50 L858R/C797S, Km ATP
[14] = Km ATP, read-out: IC50 WT, Km ATP
[15] = Km ATP, read-out: IC50 del19/C797S, Km ATP

Sequence of EGFR del19/T790M/C797S (P00533 with tags, fused parts or gaps DEL746-750/T790M/C797S): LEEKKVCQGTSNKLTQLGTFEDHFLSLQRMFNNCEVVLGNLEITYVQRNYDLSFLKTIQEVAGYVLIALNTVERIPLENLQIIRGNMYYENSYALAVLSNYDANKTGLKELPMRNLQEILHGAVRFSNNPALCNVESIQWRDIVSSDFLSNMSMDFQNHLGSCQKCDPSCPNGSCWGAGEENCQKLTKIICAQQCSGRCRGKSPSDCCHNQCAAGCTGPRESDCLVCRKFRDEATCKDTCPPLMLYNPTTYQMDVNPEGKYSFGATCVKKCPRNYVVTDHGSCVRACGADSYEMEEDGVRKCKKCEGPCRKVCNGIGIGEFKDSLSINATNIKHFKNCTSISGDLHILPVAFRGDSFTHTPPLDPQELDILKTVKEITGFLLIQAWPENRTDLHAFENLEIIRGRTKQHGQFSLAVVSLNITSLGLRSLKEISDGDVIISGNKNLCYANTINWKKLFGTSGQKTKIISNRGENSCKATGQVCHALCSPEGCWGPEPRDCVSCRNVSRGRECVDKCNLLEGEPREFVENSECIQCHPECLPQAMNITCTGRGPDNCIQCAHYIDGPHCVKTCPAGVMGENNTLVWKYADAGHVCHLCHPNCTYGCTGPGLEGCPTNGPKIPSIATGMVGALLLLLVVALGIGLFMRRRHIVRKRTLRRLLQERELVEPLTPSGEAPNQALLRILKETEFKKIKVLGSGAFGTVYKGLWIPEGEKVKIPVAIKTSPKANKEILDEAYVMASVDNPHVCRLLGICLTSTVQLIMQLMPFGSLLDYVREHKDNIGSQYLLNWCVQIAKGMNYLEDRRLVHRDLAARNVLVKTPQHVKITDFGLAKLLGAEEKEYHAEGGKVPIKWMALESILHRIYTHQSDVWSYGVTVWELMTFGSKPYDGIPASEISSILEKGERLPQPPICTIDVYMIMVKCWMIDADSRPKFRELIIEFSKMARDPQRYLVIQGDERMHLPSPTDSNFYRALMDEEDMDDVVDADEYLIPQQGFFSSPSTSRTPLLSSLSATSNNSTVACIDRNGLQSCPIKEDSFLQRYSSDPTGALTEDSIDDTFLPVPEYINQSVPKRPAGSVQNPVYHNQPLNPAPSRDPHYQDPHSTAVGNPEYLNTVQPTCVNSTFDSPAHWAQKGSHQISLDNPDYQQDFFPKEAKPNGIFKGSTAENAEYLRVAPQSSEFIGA

## Cn1nc(-c2cnc(Nc3ccnc(-c4cnn(S(=O)(=O)C5CC5)c4)n3)cc2N[C@H]2CC[C@@H](CN3CCC3)CC2)cc1C(F)(F)F [Example 264, N^4-((1s,4s)-4-(Azetidin-1-ylmethyl)cyclohexyl)-N^2-(2-(1-(cyclopropylsulfonyl)-1H-pyrazol-4-yl)pyrimidin-4-yl)-5-(1-methyl-5-(trifluoromethyl)-1H-pyrazol-3-yl)pyridine-2,4-diamine]
EGFR del19/T790M/C797S; [1]
  IC50: 1.4 nM
EGFR del19/T790M/C797S; [2]
  IC50: 1.7 nM
EGFR L858R/T790M/C797S; [3]
  IC50: 0.6 nM
EGFR L858R/T790M/C797S; [4]
  IC50: 0.4 nM
EGFR L858R/C797S; [5]
  IC50: 2.2 nM
EGFR L858R/C797S; [6]
  IC50: 0.4 nM
EGFR wildtype (WT); [7]
  IC50: 244 nM
EGFR del19/C797S; [8]
  IC50: 0.9 nM
EGFR del19/C797S; [9]
  IC50: 0.8 nM

## CN(C)C[C@H]1CC[C@@H](Nc2cc(Nc3ccnc(-c4cnn(S(=O)(=O)C5CC5)c4)n3)ncc2-c2cc(C(C)(C)O)n(C)n2)CC1 [Example 302, 2-(3-(6-((2-(1-(Cyclopropylsulfonyl)-1H-pyrazol-4-yl)pyrimidin-4-yl)amino)-4-(((1s,4s)-4-((dimethylamino)methyl)cyclohexyl)amino)pyridin-3-yl)-1-methyl-1H-pyrazol-5-yl)propan-2-ol]
EGFR del19/T790M/C797S; [1]
  IC50: 0.4 nM
EGFR del19/T790M/C797S; [2]
  IC50: 0.3 nM
EGFR L858R/T790M/C797S; [3]
  IC50: 0.2 nM
EGFR L858R/T790M/C797S; [4]
  IC50: 0.1 nM
EGFR L858R/C797S; [5]
  IC50: 0.2 nM
EGFR L858R/C797S; [6]
  IC50: 0.1 nM
EGFR wildtype (WT); [7]
  IC50: 38.9 nM
EGFR wildtype (WT); [10]
  IC50: 0.2 nM
EGFR del19/C797S; [8]
  IC50: 0.3 nM
EGFR del19/C797S; [9]
  IC50: 0.2 nM

## CN[C@H]1CC[C@@H](Nc2cc(Nc3ccnc(-c4cnn(S(=O)(=O)C5CC5)c4)n3)ncc2-c2ccco2)CC1 [Example 87, N^2-(2-(1-(Cyclopropylsulfonyl)-1H-pyrazol-4-yl)pyrimidin-4-yl)-5-(furan-2-yl)-N^4-((1s,4s)-4-(methylamino)cyclohexyl)pyridine-2,4-diamine]
EGFR del19/T790M/C797S; [1]
  IC50: 0.2 nM
EGFR L858R/T790M/C797S; [3]
  IC50: 0.7 nM
EGFR L858R/C797S; [5]
  IC50: 31.4 nM
EGFR wildtype (WT); [7]
  IC50: > 10000 nM
EGFR del19/C797S; [8]
  IC50: 6.9 nM

## C[C@]1(O)CC[C@@H](Nc2cc(Nc3ccnc(-c4cnn(S(=O)(=O)C5CC5)c4)n3)nnc2-c2ccn(CC(F)(F)F)n2)CC1 [Example 374, (1s,4s)-4-((6-((2-(1-(Cyclopropylsulfonyl)-1H-pyrazol-4-yl)pyrimidin-4-yl)amino)-3-(1-(2,2,2-trifluoroethyl)-1H-pyrazol-3-yl)pyridazin-4-yl)amino)-1-methylcyclohexan-1-ol]
EGFR del19/T790M/C797S; [11]
  IC50: 0.3 nM
EGFR L858R/T790M/C797S; [12]
  IC50: 0.6 nM
EGFR L858R/C797S; [13]
  IC50: 25.9 nM
EGFR wildtype (WT); [14]
  IC50: 1050 nM
EGFR del19/C797S; [15]
  IC50: 241 nM

## C[C@]1(O)CC[C@H](CNc2cc(Nc3ccnc(-c4cnn(S(=O)(=O)C5CC5)c4)n3)ncc2-c2ccn(C(F)F)n2)CC1 [Example 36, (1r,4r)-4-(((2-((2-(1-(Cyclopropylsulfonyl)-1H-pyrazol-4-yl)pyrimidin-4-yl)amino)-5-(1-(difluoromethyl)-1H-pyrazol-3-yl)pyridin-4-yl)amino)methyl)-1-methylcyclohexan-1-ol]
EGFR del19/T790M/C797S; [1]
  IC50: 1 nM
EGFR del19/T790M/C797S; [2]
  IC50: 0.8 nM
EGFR L858R/T790M/C797S; [3]
  IC50: 1.2 nM
EGFR L858R/T790M/C797S; [4]
  IC50: 0.3 nM
EGFR L858R/C797S; [5]
  IC50: 33.8 nM
EGFR L858R/C797S; [6]
  IC50: 3.9 nM
EGFR wildtype (WT); [7]
  IC50: > 10000 nM
EGFR wildtype (WT); [10]
  IC50: 25.1 nM
EGFR del19/C797S; [8]
  IC50: 6.8 nM
EGFR del19/C797S; [9]
  IC50: 5.4 nM

## COCn1ccc(-c2cnc(Nc3ccnc(-c4cnn(S(=O)(=O)C5CC5)c4)c3)nc2N[C@H]2CC[C@@](C)(O)CC2)n1 [Example 358, (1s,4s)-4-((2-((2-(1-(Cyclopropylsulfonyl)-1H-pyrazol-4-yl)pyridin-4-yl)amino)-5-(1-(methoxymethyl)-1H-pyrazol-3-yl)pyrimidin-4-yl)amino)-1-methylcyclohexan-1-ol]
EGFR del19/T790M/C797S; [11]
  IC50: 0.2 nM
EGFR L858R/T790M/C797S; [12]
  IC50: 0.3 nM
EGFR L858R/C797S; [13]
  IC50: 3.7 nM
EGFR wildtype (WT); [14]
  IC50: 39.6 nM
EGFR del19/C797S; [15]
  IC50: 2.3 nM

## O=S(=O)(C1CC1)n1cc(-c2nccc(Nc3cc(NC4CCN(CC(F)F)CC4)c(-c4ccn(C(F)F)n4)cn3)n2)cn1 [Example 219, N^2-(2-(1-(Cyclopropylsulfonyl)-1H-pyrazol-4-yl)pyrimidin-4-yl)-N^4-(1-(2,2-difluoroethyl)piperidin-4-yl)-5-(1-(difluoromethyl)-1H-pyrazol-3-yl)pyridine-2,4-diamine]
EGFR del19/T790M/C797S; [2]
  IC50: 0.8 nM
EGFR L858R/T790M/C797S; [4]
  IC50: 0.5 nM
EGFR L858R/C797S; [6]
  IC50: 21.4 nM
EGFR wildtype (WT); [10]
  IC50: 8630 nM
EGFR del19/C797S; [9]
  IC50: 134 nM
